ChEMBL document CHEMBL1201862, “PubChem BioAssay data set” (2004)
Each block holds one molecule with its values, some of them ahead of it. Activity calls are given as the source filed them.

What was measured:
[1] = molecular target: Delta-type opioid receptor (Homo sapiens, UniProt P41143); experiment: Counterscreen for agonists of heterodimerization of the mu 1 (OPRM1) and delta 1 (OPRD1) opioid receptors: Luminescence-based cell-based high throughput dose response assay to identify agonists of OPRD1 homodimerization. [Related pubchem assays (depositor defined):AID504326, AID504355, AID504692, AID504904, AID504905]; type: functional
Delta-type opioid receptor, sequence (P41143 whole entry): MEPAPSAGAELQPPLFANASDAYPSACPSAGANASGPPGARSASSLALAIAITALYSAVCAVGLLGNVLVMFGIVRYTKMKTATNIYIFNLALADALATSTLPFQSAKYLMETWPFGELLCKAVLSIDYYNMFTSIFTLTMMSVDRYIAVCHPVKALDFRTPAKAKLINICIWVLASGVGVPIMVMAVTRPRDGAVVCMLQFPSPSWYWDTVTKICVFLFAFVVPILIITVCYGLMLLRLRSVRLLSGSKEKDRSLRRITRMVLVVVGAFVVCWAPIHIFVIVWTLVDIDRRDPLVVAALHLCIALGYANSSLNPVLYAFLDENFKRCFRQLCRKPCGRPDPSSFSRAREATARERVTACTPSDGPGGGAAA

[2] = molecular target: Mu-type opioid receptor (Homo sapiens, UniProt P35372); experiment: Counterscreen for agonists of heterodimerization of the mu 1 (OPRM1) and delta 1 (OPRD1) opioid receptors: Luminescence-based cell-based high throughput dose response assay to identify agonists of OPRM1 homodimerization.; type: functional;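 also: U2OS cells expressing OPRM1 and beta-arrestin as split beta-galactosidase partners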
Mu-type opioid receptor, sequence (P35372 whole entry): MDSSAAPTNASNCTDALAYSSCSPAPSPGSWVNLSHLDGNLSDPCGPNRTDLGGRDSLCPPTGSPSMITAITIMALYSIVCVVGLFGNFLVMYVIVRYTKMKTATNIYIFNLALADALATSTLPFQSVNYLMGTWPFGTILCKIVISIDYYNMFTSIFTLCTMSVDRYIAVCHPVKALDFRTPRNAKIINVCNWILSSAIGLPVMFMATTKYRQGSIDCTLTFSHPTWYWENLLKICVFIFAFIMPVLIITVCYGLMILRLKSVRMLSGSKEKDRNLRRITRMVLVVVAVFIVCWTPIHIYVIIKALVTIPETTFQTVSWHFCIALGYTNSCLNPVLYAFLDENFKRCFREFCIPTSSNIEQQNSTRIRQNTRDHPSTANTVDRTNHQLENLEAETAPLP

[3] = molecular target: 5-hydroxytryptamine receptor 5A (Homo sapiens, UniProt P47898); experiment: Counterscreen for agonists of OPRM1-OPRD1 heterodimerization: luminescence-based cell-based high throughput dose response assay to identify agonists of 5-hydroxytryptamine (serotonin) 5A receptor (HTR5A). [Related pubchem assays (depositor defined):AID504326, AID504355, AID504692, AID504904, AID504905]; type: functional
5-hydroxytryptamine receptor 5A, sequence (P47898 whole entry): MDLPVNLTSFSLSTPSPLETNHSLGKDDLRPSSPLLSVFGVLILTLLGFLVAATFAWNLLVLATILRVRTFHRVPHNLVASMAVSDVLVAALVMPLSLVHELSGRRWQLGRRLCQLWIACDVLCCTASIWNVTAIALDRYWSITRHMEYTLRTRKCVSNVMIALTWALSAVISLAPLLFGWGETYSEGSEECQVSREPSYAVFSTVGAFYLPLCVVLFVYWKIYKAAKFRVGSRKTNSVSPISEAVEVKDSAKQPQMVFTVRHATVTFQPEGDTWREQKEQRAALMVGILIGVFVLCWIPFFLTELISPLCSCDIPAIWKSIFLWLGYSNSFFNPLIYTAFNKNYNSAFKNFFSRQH

[4] = molecular target: T1, Heat shock factor protein 1 (Mus musculus, UniProt P38532); experiment: decrease of HSF1-responsive luciferase luminescence – cell-based, NIH3T3, dose retest, confirmation (AID 2382); type: functional;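 also: NIH3T3 fibroblasts with HSF1-driven luciferase reporter stressed by proteasome inhibitor MG132; luminescence from HSF1-driven luciferase expression after 8 hours of MG132 stress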
T1 sequence (P38532 whole entry): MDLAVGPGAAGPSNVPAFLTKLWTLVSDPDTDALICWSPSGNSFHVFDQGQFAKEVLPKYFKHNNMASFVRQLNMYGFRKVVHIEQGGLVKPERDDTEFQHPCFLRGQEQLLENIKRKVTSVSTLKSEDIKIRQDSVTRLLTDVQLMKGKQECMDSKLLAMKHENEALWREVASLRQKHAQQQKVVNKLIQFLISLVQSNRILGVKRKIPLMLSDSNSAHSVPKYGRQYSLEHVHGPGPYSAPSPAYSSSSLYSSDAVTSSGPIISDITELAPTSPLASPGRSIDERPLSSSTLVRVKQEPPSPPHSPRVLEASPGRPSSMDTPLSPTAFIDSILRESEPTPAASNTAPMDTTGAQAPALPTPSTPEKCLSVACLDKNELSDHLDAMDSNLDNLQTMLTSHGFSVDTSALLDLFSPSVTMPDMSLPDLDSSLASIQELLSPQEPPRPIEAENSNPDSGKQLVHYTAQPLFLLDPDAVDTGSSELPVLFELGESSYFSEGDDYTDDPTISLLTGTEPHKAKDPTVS

[5] = molecular target: Luciferin 4-monooxygenase (Photinus pyralis, UniProt P08659); experiment: inhibition of purified Photinus pyralis luciferase – biochemical, luminescence, dose response (AID 1891)
Luciferin 4-monooxygenase, sequence (P08659 whole entry): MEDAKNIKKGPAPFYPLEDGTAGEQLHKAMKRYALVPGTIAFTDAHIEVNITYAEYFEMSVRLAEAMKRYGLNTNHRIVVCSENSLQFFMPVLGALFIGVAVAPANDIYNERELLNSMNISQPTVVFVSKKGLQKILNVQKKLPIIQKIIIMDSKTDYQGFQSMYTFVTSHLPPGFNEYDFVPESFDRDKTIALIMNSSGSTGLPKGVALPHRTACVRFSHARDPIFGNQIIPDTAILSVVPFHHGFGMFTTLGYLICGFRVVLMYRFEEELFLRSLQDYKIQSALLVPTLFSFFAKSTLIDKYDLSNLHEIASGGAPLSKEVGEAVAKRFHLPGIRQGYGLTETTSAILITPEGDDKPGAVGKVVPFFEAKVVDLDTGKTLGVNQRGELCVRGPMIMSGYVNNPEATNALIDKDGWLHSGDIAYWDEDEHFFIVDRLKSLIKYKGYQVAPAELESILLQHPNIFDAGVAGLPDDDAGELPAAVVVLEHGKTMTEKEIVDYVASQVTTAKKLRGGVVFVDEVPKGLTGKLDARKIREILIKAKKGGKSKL

[6] = Luminescence Cell-Based Dose Confirmation HTS to Identify Inhibitors of Platelet Dense Granule Release. [Related pubchem assays: 1663 (Primary HTS), 1678 (Summary of Project)]; type: functional
[7] = HEK-293T viability loss after treatment – luminescence, T-cell screen hits, cytotoxicity control for TCR NF-kB inhibitor project, dose response (AID 489026); type: functional, cell-based;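 also: cells exposed to compound about 14 hours before the viability readout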
[8] = molecular target: T2, Microphthalmia-associated transcription factor (Homo sapiens, UniProt O75030); experiment: reducers of TRPM1 reporter luminescence, concentration series – cell-based, SK-MEL-5, cherry-picked, set 3, MITF inhibitor project, dose response (AID 493073); type: functional;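 also: SK-MEL-5 melanoma cells with luciferase driven by the MITF target TRPM1 promoter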
T2 sequence (O75030 whole entry): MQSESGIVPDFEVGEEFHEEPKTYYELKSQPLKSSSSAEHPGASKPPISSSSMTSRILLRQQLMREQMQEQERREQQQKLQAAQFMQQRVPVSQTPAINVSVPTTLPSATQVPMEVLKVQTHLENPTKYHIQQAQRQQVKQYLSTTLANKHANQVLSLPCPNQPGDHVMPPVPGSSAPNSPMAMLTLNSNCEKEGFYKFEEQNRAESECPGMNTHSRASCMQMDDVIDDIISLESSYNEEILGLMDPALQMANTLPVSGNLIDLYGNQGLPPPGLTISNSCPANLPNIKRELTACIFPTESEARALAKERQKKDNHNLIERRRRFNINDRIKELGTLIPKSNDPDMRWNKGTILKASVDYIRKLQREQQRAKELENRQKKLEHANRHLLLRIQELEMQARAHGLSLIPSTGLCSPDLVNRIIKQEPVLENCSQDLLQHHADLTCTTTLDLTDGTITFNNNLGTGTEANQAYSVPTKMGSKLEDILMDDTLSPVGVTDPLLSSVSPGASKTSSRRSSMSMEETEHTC

[9] = tested on: A-375; experiment: MITF: Counter assay: A375 proliferation Measured in Cell-Based System Using Plate Reader - 2084-03_Inhibitor_Dose_DryPowder_Activity. [Related pubchem assays (depositor defined):AID488944]; type: functional; conditions: Homo sapiens
[10] = reduction of Shn3 3'UTR-driven luciferase in osteoblasts – cell-based, Clone20 osteoblasts, firefly luciferase, cherry-picked, dose response (AID 624132); type: functional;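 also: firefly luciferase luminescence from reporter carrying the Shn3 3'UTR in osteoblasts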
[11] = loss of viability in HepG2 cells – cell-based, CellTiter-Glo, cherry-picked, cytotoxicity control for Shn3 inhibitor project, dose response (AID 624134); type: functional
[12] = blockers of HIV-1 envelope-mediated cell-cell fusion – cherry-pick, dose response (AID 652057); type: functional, cell-based
[13] = viability loss in CEM21 cells – cell-based, CellTiter-Glo luminescence, cherry-picked, cytotoxicity control for viral fusion inhibitor project, dose response (AID 652042); type: functional;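 also: potency for signal decrease meaning cytotoxicity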
[14] = blockers of HIV-1 ZM109 envelope-driven cell-cell fusion – HeLa effector, CEM target cells, luciferase, cherry-pick, dose response (AID 652058); type: functional, cell-based;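 also: luciferase signal from HIV-1 Env mediated cell-cell fusion of effector and target cells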
[15] = molecular target: Paired box protein Pax-8 (Homo sapiens, UniProt Q06710); experiment: PAX8 transcriptional activity inhibition in RMG-I – RMG-I cells, luciferase, cherry-pick, dose response (AID 687027); type: functional, cell-based;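 also: luciferase reporter driven by Pax8 target thyroperoxidase promoter measured by SteadyGlo luminescence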
Paired box protein Pax-8, sequence (Q06710 whole entry, the tested form may be a part): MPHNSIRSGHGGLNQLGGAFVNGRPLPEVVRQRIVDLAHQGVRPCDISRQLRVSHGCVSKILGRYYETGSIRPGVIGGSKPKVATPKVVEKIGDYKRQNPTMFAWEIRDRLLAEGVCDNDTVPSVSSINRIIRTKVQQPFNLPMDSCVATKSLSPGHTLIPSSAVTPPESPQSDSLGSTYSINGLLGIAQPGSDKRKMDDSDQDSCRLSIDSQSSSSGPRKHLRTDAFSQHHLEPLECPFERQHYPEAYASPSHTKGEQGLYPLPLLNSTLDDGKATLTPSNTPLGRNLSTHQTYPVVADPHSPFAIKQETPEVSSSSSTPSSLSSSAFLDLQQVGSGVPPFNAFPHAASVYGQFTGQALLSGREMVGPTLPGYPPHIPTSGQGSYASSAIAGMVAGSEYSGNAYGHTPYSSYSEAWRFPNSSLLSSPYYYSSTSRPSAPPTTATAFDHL

[16] = off-target signal loss in HeLa-CEM21 co-culture – HeLa F-luc CTL cells, cherry-picked, counter-screen for HIV-1 Env fusion inhibitor project, dose response (AID 652040); type: functional, cell-based;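 also: potency for signal decrease marking cytotoxic or nonspecific inhibition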
[17] = HIV-1 AD8 envelope cell-cell fusion blockers – cherry-pick, dose response (AID 652062); type: functional, cell-based;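 also: luciferase signal from cell-cell fusion driven by HIV-1 clade B AD8 Env; potency is for inhibitors of fusion seen as a drop in luminescence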
[18] = A549 cell cytotoxicity, dose response, cytotoxicity control, plate reader, cherry-pick, antagonist series (AID 743412); type: functional, cell-based
[19] = toxicity toward HepG2 liver cells – cell-based, plate reader, cherry-pick, antagonist series, cytotoxicity control, dose response (AID 743416); type: functional
[20] = blockers of bursicon-stimulated LGR2 cAMP reporter – cell-based, HEK293, CRE-luciferase reporter, cherry pick, set 2, dose response (AID 743343); type: functional;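 also: transfected cells were stimulated with diluted bursicon conditioned medium after compound addition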
[21] = general cell-killing toxicity readout – plate reader, dry powder samples, cytotoxicity control for PAX8 inhibitor project, dose response (AID 743021); type: functional, cell-based
[22] = blockade of melanocortin 4 receptor signaling – cell-based, plate reader, cherry pick, counter-screen for LGR2 antagonist project, dose response (AID 743444); type: functional;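 also: transfected HEK 293 cells stimulated with alpha-MSH peptide; potency of inhibitors of the alpha-MSH evoked signal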
[23] = viability loss in HEK293 cells – cell-based, plate reader, cherry-picked samples, cytotoxicity control, dose response (AID 743446); type: functional
[24] = molecular target: T3, Hexokinase-1 (Homo sapiens, UniProt P19367); experiment: SAR analysis of small molecule inhibitors of hexokinase domain containing I (HKDC1) in the hexokinase 1 selectivity assay. [Related pubchem assays (depositor defined):AID493160, AID493190]; type: functional
T3 sequence (P19367 whole entry): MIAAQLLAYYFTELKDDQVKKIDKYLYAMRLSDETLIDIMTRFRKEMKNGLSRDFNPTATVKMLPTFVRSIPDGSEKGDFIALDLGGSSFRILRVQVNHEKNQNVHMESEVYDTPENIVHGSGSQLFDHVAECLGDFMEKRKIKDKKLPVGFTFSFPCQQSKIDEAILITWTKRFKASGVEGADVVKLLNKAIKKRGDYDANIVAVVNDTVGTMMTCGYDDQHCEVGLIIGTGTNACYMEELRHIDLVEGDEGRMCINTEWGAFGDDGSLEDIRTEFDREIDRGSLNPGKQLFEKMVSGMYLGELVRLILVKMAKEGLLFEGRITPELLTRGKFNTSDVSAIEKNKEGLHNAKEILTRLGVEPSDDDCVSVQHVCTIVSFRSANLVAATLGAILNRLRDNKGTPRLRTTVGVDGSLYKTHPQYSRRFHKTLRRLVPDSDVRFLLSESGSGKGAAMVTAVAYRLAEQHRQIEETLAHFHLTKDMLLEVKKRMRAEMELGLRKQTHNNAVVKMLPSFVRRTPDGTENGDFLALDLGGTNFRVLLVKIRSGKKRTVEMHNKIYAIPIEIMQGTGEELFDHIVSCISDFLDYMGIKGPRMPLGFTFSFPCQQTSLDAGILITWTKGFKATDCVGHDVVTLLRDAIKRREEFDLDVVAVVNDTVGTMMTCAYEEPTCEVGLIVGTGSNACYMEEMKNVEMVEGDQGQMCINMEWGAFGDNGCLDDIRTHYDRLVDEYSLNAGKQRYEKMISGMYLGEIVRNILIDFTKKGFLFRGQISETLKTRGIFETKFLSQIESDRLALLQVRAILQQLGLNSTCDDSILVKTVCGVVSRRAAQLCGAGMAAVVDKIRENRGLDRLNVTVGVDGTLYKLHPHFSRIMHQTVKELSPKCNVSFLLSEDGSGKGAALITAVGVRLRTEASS

[25] = molecular target: T4, Hexokinase HKDC1 (Homo sapiens, UniProt Q2TB90); experiment: SAR analysis of small molecule inhibitors of hexokinase domain containing I (HKDC1). [Related pubchem assays (depositor defined):AID493160, AID493190]; type: functional
T4 sequence (Q2TB90 whole entry): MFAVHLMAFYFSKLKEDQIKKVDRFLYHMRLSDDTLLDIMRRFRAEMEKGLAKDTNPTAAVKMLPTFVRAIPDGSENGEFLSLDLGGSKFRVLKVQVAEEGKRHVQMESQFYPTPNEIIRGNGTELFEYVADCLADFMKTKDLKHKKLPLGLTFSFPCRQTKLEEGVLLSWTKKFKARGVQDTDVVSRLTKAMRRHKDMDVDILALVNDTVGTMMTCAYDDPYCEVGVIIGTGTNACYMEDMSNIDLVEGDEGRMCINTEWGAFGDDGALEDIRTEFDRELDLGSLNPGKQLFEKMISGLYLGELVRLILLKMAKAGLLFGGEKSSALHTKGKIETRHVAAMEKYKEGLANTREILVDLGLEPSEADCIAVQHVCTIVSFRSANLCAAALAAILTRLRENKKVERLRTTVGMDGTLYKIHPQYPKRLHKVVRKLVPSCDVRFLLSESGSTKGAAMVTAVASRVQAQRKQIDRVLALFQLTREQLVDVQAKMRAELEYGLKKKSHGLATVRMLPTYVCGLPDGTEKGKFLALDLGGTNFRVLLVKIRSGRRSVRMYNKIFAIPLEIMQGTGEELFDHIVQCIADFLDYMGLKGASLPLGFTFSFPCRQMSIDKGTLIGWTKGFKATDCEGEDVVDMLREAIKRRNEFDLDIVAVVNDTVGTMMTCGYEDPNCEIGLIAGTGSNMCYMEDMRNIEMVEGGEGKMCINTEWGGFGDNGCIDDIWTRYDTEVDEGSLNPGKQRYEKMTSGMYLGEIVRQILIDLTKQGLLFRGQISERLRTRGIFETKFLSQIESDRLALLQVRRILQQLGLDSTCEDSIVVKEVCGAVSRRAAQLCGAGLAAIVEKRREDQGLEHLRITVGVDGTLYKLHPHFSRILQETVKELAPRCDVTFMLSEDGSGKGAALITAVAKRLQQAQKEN

EC50 [1]: > 92.5 µM (inactive)
EC50 [2]: > 92.5 µM (inactive)
EC50 [3]: > 92.5 µM (inactive)
SMILES: Cc1c(CCOC(=O)c2ccccc2)sc[n+]1CC(=O)c1ccc(Br)cc1

SMILES: C=CCn1c(C)cc(C2=NN=C(NCC)SC2)c1C
EC50 [4]: < 0.16 µM (active)
EC50 [5]: 5.03 µM (active)
EC50 [6]: 2.02 µM (active)
IC50 [7]: > 80 µM (inactive)
AC50 [8]: 0.056 µM (active)
AC50 [9]: 25.7 µM (active)
AC50 [10]: < 0.26 µM (active)
AC50 [11]: 26 µM (active)
AC50 [12]: 0.295 µM (active)
AC50 [13]: 34.7 µM (active)
AC50 [14]: 2.94 µM (active)
AC50 [15]: 0.267 µM (active)
AC50 [16]: 0.554 µM (active)
AC50 [17]: 0.359 µM (active)
AC50 [18]: 11.7 µM (active)
AC50 [19]: 3.64 µM (active)
AC50 [20]: < 0.068 µM (active)
AC50 [21]: 8.07 µM (active)
AC50 [22]: < 0.068 µM (active)
AC50 [23]: 14.5 µM (active)

IC50 [24]: > 80 µM (inactive)
IC50 [25]: > 80 µM (inactive)
SMILES: O=c1c2ccccc2nc(/C=C/c2ccc3c(c2)OCO3)n1Cc1ccccc1
